From patent US8324279B2, “Compositions and methods for inhibiting an isoform of human manganese superoxide dismutase” (MitoTek, LLC, priority 2003, dated 2012)
“Also recorded” adds a separate entry of the source. Values belong to the compound of their own block, whether it stands above or below them.

What was measured:
isoMnSOD [1] = assay: Peroxidative assay of native mitochondrial extracts from compound-treated pancreatic explants (ROS-activity blot); type: cell-based, pig; settings: pancreatic explant cultured 1 hr at 37° C. with equal volume of 2 μM compound; FIG. 1
Experimental: Recombinant and mammalian detergent extracts of native mitochondrial proteins were separated in a 7% PAGE gel without SDS containing 375 mM Tris pH 8.2 at 100 volts for 1.5 hr. After electrotransfer of proteins to nitrocellulose using transfer buffer without SDS, peroxidative activity was measured directly upon the filter by their incubation with 0.5 ml of the Femtomole luminol solution (Pierce) containing 1 mM H2O2 and exposing to x-ray film or other means of detecting chemiluminescence.
F10 medium was used throughout the procedure. Pancreas (8 grams) from a 3 kilo pig was minced, washed twice, and 1 g of tissue was resuspended in 5 ml of FIO medium. […] Explants were stored frozen at −70° C. Tissue was homogenized in Buffer A at 4° C. and mitochondria was isolated by differential centrifugation and stored frozen at −70° C. Peroxidative assay of native mitochondrial extracts analyzed by the ROS-activity blot.

isoMnSOD [2] = molecular target: T1, isoMnSOD (Homo sapiens, UniProt P04179); assay: Detection of inhibitors bound to isoMnSOD (immunoprecipitation/western blot); settings: anti-dopamine or anti-serotonin antibody; FIG. 2A and 2B
T1 sequence (P04179 25-183 isoform P04179-2 limits assumed): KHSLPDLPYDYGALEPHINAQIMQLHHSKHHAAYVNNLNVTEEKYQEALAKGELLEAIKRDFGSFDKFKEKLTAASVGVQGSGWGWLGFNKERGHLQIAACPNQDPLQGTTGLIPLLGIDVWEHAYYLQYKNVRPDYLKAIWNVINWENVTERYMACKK
Experimental: Covalent modification of the MnSOD-Exon3-deleted isoform was measured by a combined immuneprecipitation/western blot analysis. Immunoblots for detecting AA-DA, EPA-DA, DHA-DA, C18:4(ω-3)-DA adducts were performed using anti-dopamine rabbit polyclonal (Chemicon) and anti-serotonin goat polyclonal antibodies (ImmunoStar), respectively. After immunoprecipitating using an antibody against the inhibitor, isoMnSOD was detected as described above.

isoMnSOD [3] = assay: Pro-oxidant activity of isoMnSOD, at least one of the assays provided in the Examples; settings: according to at least one of the assays provided in the Examples
Experimental: (§1) Each test compound was prepared by mixing 5 μL of a 1 mM test compound stock solution in ethanol with 5 μL of 0.1 M KOH, followed by the addition of 5 ml of TBS for a final concentration of 1 μM test compound. Equal amounts of native protein extracts from pancreatic mitochondria (obtained according to the protocol of Example 5) were loaded in separate wells and resolved in a 7% PAGE gel without SDS, electrotransferred to PVDF and divided into strips. Each PVDF strip was incubated with 1 μM of test compound in TBS for 30 minutes, washed twice in TBS for 20 minutes, and the peroxidative activity of isoMnSOD was measured by incubation of each strip with 1 mM H2O2 in 0.4 ml of the luminol solution contained within the Femtomole chemiluminescence assay kit (Pierce) and exposed to x-ray film (FIG. 4).
Peroxidative assay of native mitochondrial extracts analyzed by the ROS-activity blot.

isoMnSOD [4] = assay: Drug inhibition method: peroxidative activity of isoMnSOD on PVDF strips (ROS-activity blot); settings: 1 μM test compound for 30 minutes; 1 mM H2O2, luminol chemiluminescence; FIG. 4
Experimental: as §1
All procedures were carried out at 4° C.

[5] = test system: adult cardiomyocyte explants; assay: Doxorubicin induction of isoMnSOD expression in adult heart explants (Western Blot); type: cell-based, rat; settings: 3 days, 0.1 nM to 1.0 μM Doxorubicin, AdvDMEM 2% FBS, FIG. 3
Source text: Adult cardiomyocytes were isolated and purified following the combination of perfusion techniques (Borg et al. Recognition of extracellular matrix components by neonatal and adult cardiac myocytes. Dev Biol. 1984; 104:86-96) and an attachment procedure (Bugaisky L B, Zak R. Differentiation of adult rat cardiac myocytes in cell culture. Circ Res. 1989; 64:493-500) as described by Sil et al. (Sil et al. Myotrophin in human cardiomyopathic heart. Circ Res. 1993; 73:98-108). Briefly, after rats (5 weeks old) were killed by decapitation, the hearts were aseptically excised and residual blood was removed. The heart was perfused in Joklik's medium (containing Joklik's minimal essential medium, 25 mmol/L glutamic acid, 30 mmol/L taurine, and 1 mmol/L adenosine) without recirculation on a modified Langendorff apparatus for approximately 10 minutes at 37° C. The perfusion was then continued for 30 minutes at the same temperature, with recirculation in Joklik's medium containing collagenase type II (100 U/mL). After perfusion, the ventricles were cut into small pieces and tritulated in 0.05% Trypsin/EDTA for 10 min. Cardiac explants were cultured overnight on laminin-coated (20 μg per well) 35-mm six-well plates in medium 199 containing 5% FBS, 5 mM creatine, 2 mM L-carnitine, and 5 mM taurine. […]

altMnSODreport = assay: Testing of drugs for toxicity with the reporter gene system; type: cell-based; settings: cells comprising the reporter gene system
Experimental: Drugs are tested alone or in combination in cancerous or diseased cells and in healthy cells. The compounds are added to cells comprising the reporter gene system. The induction of the reporter is characterized in the absence and the presence of the drug(s).
Breast cancer cell line, MDA-MB-435, Her-2/neu over-expressing (ATCC), fibroblast cells lines NIH3T3 and B104, which are NIH3T3 cells transfected with the rat ErbB2/Her2 oncogene, and normal primary cells (Clonetics; rat cardiomyocytes, donated by Kathryn Maschhoff, MD PhD, Neonatology, University of Pennsylvania) are treated with doxorubicin alone and in combination with the rat ErbB2/Her2 17.6.4 monoclonal antibody, which downregulates the human and rat Her2 receptor (Zhang et al., 1999)(Oncogene), and Herceptin™ (Genentech). It is also determined if the Her2 mAbs induces isoMnSOD expression in untransfected cells and cells transfected with altMnSODreport. A dose-response curve is established, using western immunoblot analysis of the isoMnSOD protein and the expression of the reporter construct. A similar analysis is performed for doxorubicin treatment of cells. Both treatments are analyzed for their effects on mtDNA stability by Southern hybridization analysis, induction of lipid peroxidation by immunodetection of HNE-modified proteins, and induction of apoptosis by activation of caspases 9 and 3.

binding to isoMnSOD (covalent modification of the MnSOD-Exon3-deleted isoform) (isoMnSOD [2]): able to bind to isoMnSOD
Compound: C18:4(ω-3)-dopamine
mitochondrial peroxidase activity (isoMnSOD [1]): inhibited the mitochondiral peroxidase activity
pro-oxidant activity of isoMnSOD (isoMnSOD [3]): found to inhibit pro-oxidant activity of isoMnSOD
peroxidative activity of isoMnSOD (isoMnSOD [4]): inhibit peroxidative activity more significantly than the other compounds

Compound: CC/C=C\C/C=C\C/C=C\C/C=C\C/C=C\CCCC(=O)NCCc1ccc(O)c(O)c1 [eicosapentaenoyl (EPA)-dopamine, eicosapentaenoyl dopamine]
mitochondrial peroxidase activity (isoMnSOD [1]): did not inhibit peroxidase activity to the same effect
pro-oxidant activity of isoMnSOD (isoMnSOD [3]): found to inhibit pro-oxidant activity of isoMnSOD
peroxidative activity of isoMnSOD (isoMnSOD [4]): inhibit peroxidative activity more significantly than the other compounds

Compound: CCCCC/C=C\C/C=C\C/C=C\C/C=C\CCCC(=O)NCCc1c[nH]c2ccc(O)cc12 [arachidonoyl-serotonin, arachidonoyl serotonin]
mitochondrial peroxidase activity (isoMnSOD [1]): inhibited the mitochondiral peroxidase activity
binding to isoMnSOD (covalent modification of the MnSOD-Exon3-deleted isoform) (isoMnSOD [2]): able to bind to isoMnSOD
pro-oxidant activity of isoMnSOD (isoMnSOD [3]): found to inhibit pro-oxidant activity of isoMnSOD

binding to isoMnSOD (covalent modification of the MnSOD-Exon3-deleted isoform) (isoMnSOD [2]): able to bind to isoMnSOD
Compound: CC/C=C\C/C=C\C/C=C\C/C=C\C/C=C\C/C=C\CCC(=O)NCCc1ccc(O)c(O)c1 [docosahexaenoyl (DHA)-dopamine, docosahexaenoyl dopamine]
mitochondrial peroxidase activity (isoMnSOD [1]): inhibited the mitochondiral peroxidase activity
pro-oxidant activity of isoMnSOD (isoMnSOD [3]): found to inhibit pro-oxidant activity of isoMnSOD
peroxidative activity of isoMnSOD (isoMnSOD [4]): inhibit peroxidative activity more significantly than the other compounds

Compound: COc1cccc2c1C(=O)c1c(O)c3c(c(O)c1C2=O)C[C@@](O)(C(=O)CO)C[C@@H]3O[C@H]1C[C@H](N)[C@H](O)[C@H](C)O1 [Doxorubicin]
isoMnSOD expression [5]: induced isoMnSOD expression; also recorded: induces the expression of isoMnSOD
expression of altMnSOD report (altMnSODreport): causes an increase in expression of altMnSOD report
